Experimental findings from patent US7851590B2, “Y2 selective receptor agonists for therapeutic interventions” (7TM Pharma A/S, priority 2005, dated 2010) are described below.

In assay [1] the target is T1, rhesus monkey Y2 receptor (Macaca mulatta, UniProt Q9GK74).
T1 sequence (Q9GK74 1-381): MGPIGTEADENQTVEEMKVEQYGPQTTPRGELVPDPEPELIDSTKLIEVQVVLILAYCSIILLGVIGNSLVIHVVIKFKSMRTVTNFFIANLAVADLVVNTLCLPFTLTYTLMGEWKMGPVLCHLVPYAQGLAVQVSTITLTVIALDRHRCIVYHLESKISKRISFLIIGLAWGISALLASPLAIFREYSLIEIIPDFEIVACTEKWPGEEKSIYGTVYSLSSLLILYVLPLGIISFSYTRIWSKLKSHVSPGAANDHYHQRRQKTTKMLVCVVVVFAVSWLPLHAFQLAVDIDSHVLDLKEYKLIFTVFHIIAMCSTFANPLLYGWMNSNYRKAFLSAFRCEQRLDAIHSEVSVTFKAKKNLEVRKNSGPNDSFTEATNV
Kind of assay: Rhesus monkey Y2 receptor affinity assay (competition binding with human 125I-PYY). Details: The coding region of the rhesus monkey NPY-Receptors (Y1, Y2, Y4) were sub-cloned into the pcDNA3.1/Zeo vector; expressed in transfected cells; host or cells: CHO cells, stably transfected. Particulars: CHO cells stably transfected with the rhesus monkey Y2 receptor; 12 pM human 125I-PYY, 3 hours at 4 C; read-out: Competition binding w 126I-PYY at Y2 (Ki). The method, then: The stable transfected CHO cells are transferred to 48-well culture plates one day prior assay at a density of 2,500 cells per well aiming at 5-8% binding of the radioactive ligand. […] Cells are washed twice in 0.5 ml of ice-cold buffer and 0.5-1 ml of lysis buffer (8 M Urea, 2% NP40 in 3 M acetic acid) is added and the bound radioactivity is counted in a gamma counter. Determinations are made in triplicates.

Assay [2] has as its target T1, rhesus monkey Y2 receptor. Kind of assay: Rhesus monkey Y2 receptor potency assay (phosphatidylinositol turnover, Gqi5). It is filed as cell-based. More on the design: The coding region of the rhesus monkey NPY-Receptors (Y1, Y2, Y4) were sub-cloned into the pcDNA3.1/Zeo vector; expressed in transfected cells; host or cells: COS-7 cells, transiently transfected. The following applies: COS-7 cells transiently transfected with rhesus monkey Y2 receptor and Gqi5; μM; read-out: IP3 EC50 values at Y2. The protocol: Determinations are made in duplicates. EC50 values were calculated using a standard pharmacological data handling software, Prism 3.0 (graphPad Sofware, San Diego, USA).

Take `CC[C@H](C)[C@H](NC(=O)[C@H](Cc1ccc(O)cc1)NC(=O)[C@H](CCCNC(=N)N)NC(=O)[C@H](CCCNC(=N)N)NC(=O)[C@H](CC(C)C)NC(=O)[C@H](CC(=O)O)NC(=O)[C@H](C)NC(=O)[C@H](C)NC(=O)[C@H](Cc1ccc(O)cc1)NC(=O)[C@H](CCC(N)=O)NC(=O)[C@H](C)NC(=O)[C@H](CCSC)NC(=O)[C@H](CCC(N)=O)NC(=O)[C@H](CCC(=O)O)NC(=O)[C@@H]1CCCN1C(=O)[C@@H](NC(=O)[C@H](C)NC(=O)[C@H](CC(N)=O)NC(=O)[C@H](CC(=O)O)NC(=O)CNC(=O)[C@@H]1CCCN1C(=O)[C@H](Cc1ccc(O)cc1)NC(=O)[C@@H](NC(=O)[C@@H]1CCCN1C(=O)[C@H](CCC(=O)O)NC(=O)[C@H](CC(C)C)NC(=O)[C@@H]1CCCN1C(=O)[C@H](C)N)C(C)C)[C@@H](C)O)C(=O)N[C@@H](CC(N)=O)C(=O)N[C@@H](CCSC)C(=O)N[C@@H](CC(C)C)C(=O)N[C@H](C(=O)N[C@@H](CCCNC(=N)N)C(=O)N1CCC[C@H]1C(=O)N[C@@H](CCCNC(=N)N)C(=O)N[C@@H](Cc1ccc(O)cc1)C(N)=O)[C@@H](C)O` [PP, Pancreatic Polypeptide]: the Ki in assay [1] was > 1000 nM. Besides, in assay [2], the concentration giving a half-maximal response (EC50) is > 1 µM.

For orientation: Ki means a measure of affinity in units of concentration, obtained from inhibition or displacement. By EC50 is commonly meant the concentration giving half of the maximal effect.
